This is an account of results in PubChem BioAssay AID1671275.

pIC50: −log10 of the molar value.

This assay addresses Ephrin type-B receptor 3 (Homo sapiens) (UniProt P54753). Briefly: inhibition of human ephrin receptor B3 activity – biochemical, Z'-LYTE, FRET, protease-coupled, direct format, dose response (AID 1671275). The settings on record: Z'-LYTE FRET kinase activity assay, recombinant EPHB3.

Chain of Ephrin type-B receptor 3 (Homo sapiens) (P54753 whole entry, looked up): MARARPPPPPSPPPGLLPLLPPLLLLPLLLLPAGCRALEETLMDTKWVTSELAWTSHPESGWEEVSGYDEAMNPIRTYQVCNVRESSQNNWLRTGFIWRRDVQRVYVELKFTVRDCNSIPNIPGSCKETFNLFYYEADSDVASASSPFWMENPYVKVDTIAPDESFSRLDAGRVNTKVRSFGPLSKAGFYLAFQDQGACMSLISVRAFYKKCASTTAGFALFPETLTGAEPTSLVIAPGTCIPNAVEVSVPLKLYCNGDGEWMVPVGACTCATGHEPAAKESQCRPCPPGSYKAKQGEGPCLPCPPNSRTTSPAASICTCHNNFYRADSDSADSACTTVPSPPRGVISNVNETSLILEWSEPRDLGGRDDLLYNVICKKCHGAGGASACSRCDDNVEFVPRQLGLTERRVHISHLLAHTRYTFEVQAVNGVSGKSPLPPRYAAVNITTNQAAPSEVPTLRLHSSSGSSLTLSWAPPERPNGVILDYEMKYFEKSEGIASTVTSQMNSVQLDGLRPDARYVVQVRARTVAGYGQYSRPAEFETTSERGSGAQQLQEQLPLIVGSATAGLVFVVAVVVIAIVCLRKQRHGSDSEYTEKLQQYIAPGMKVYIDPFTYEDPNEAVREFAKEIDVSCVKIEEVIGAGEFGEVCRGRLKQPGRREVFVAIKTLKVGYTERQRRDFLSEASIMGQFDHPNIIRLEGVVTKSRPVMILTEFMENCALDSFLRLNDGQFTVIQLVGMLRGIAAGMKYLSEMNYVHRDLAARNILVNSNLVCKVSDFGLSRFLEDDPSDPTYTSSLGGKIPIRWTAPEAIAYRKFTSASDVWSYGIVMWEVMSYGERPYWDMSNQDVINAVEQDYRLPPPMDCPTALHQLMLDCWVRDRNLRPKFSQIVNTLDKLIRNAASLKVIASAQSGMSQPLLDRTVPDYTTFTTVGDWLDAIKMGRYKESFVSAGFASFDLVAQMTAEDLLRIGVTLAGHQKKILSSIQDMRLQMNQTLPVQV

As to `CC(C)(C)n1nc(-c2ccc(Cl)cc2)c2c(N)ncnc21`, the negative logarithm of the IC50 (pIC50) (commonly −log10 of the IC50, conventionally taken in molar units) is 6.12.
